Assay results as given in US10106534B2 (CELGENE QUANTICEL RESEARCH, INC., priority 2014, dated 2018).
pIC50: −log10 of the molar value.

Key:
[1] = system: KYSE-150 esophageal carcinoma cell line; assay: In vitro cell-based assay: cellular proliferation via BrdU incorporation (ELISA); design: species or system human; settings: Homo sapiens, KYSE-150, 168 hours compound incubation
How it was run: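 KYSE-150 cells (JMJD2C-amplified; SMAD4 and TP53 mutant), 2,000/well, were treated after overnight attachment with an 11-point series (100 μM to 2 nM) for 168 h. Proliferation was read by BrdU ELISA (2 h labelling, anti-BrdU-peroxidase, TMB, 450 nm) and IC50 fitted.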

[2] = molecular target: JMJD3 (Homo sapiens, UniProt O15054); assay: In vitro enzyme inhibition assay for JMJD3 activity (TR-FRET); format: biochemical
[3] = molecular target: JMJD2C (Homo sapiens (Human), UniProt Q9H3R0); assay: In vitro enzyme inhibition assay for JMJD2C activity (TR-FRET); format: biochemical
How it was run: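 Baculovirus JMJD2C (AA 2-372), 0.3 nM, with 300 nM biotin-H3K9me3 peptide and 2 μM α-ketoglutarate in HEPES pH 7.3 containing Fe(II) and ascorbate, 30 min at room temperature, 11-point dilutions. H3K9me2 product by TR-FRET (Eu-antibody/streptavidin-APC, 665/615 ratio); IC50 fitted.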

Sequence of JMJD2C (Q9H3R0 2-372): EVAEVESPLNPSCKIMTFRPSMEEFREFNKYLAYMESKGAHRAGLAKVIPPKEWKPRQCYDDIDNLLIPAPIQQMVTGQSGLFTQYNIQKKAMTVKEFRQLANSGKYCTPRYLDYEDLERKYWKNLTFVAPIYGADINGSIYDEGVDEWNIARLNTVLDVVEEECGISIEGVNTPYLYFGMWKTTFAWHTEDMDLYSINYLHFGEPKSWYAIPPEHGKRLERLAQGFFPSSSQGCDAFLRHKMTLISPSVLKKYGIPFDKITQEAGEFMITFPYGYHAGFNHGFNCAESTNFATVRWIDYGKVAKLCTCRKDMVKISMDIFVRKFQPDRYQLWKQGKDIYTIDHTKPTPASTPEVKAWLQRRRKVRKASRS

Compound | pIC50 [1] | pIC50 [2] | pIC50 [3]
Cc1noc(C)c1N(C)c1ccc2c(c1)CCC[C@H]2CNc1cnccc1C(=O)O [Example 166, 3-({[(1R)-6-[(dimethyl-1,2-oxazol-4-yl)(methyl)amino]-1,2,3,4-tetrahydronaphthalen-1-yl]methyl}amino)pyridine-4-carboxylic acid] | < 5.00 | 5.00 to 6.00 | 6.00 to 7.00
CN(c1ccc(N2CCOCC2)cc1)c1ccc2c(c1)CCC[C@H]2CNc1cnccc1C(=O)O [Example 170, 3-({[(1R)-6-{methyl[4-(morpholin-4-yl)phenyl]amino}-1,2,3,4-tetrahydronaphthalen-1-yl]methyl}amino)pyridine-4-carboxylic acid] | ≥ 7.00 | 5.00 to 6.00 | 6.00 to 7.00
CN(c1ccc(N2CCC2)cc1)c1ccc2c(c1)OCC[C@H]2CNc1cnccc1C(=O)O [Example 183, 3-({[(4R)-7-{[4-(azetidin-1-yl)phenyl](methyl)amino}-3,4-dihydro-2H-1-benzopyran-4-yl]methyl}amino)pyridine-4-carboxylic acid] | ≥ 7.00 | 5.00 to 6.00 | 6.00 to 7.00
CN(c1ccc(OC(F)F)cc1)c1ccc2c(c1)CCC[C@H]2CNc1cnccc1C(=O)O [Example 184, 3-({[(1R)-6-{[4-(difluoromethoxy)phenyl](methyl)amino}-1,2,3,4-tetrahydronaphthalen-1-yl]methyl}amino)pyridine-4-carboxylic acid] | ≥ 7.00 | 5.00 to 6.00 | 6.00 to 7.00
CCOc1ccc(N(C)c2ccc3c(c2)CCC[C@H]3CNc2cnccc2C(=O)O)cc1 [Example 185, 3-({[(1R)-6-[(4-ethoxyphenyl)(methyl)amino]-1,2,3,4-tetrahydronaphthalen-1-yl]methyl}amino)pyridine-4-carboxylic acid] | ≥ 7.00 | 5.00 to 6.00 | 6.00 to 7.00
CC(C)c1ccc(N(C)c2ccc3c(c2)OCC[C@H]3CNc2cnccc2C(=O)O)cc1 [Example 187, 3-({[(4R)-7-{methyl[4-(propan-2-yl)phenyl]amino}-3,4-dihydro-2H-1-benzopyran-4-yl]methyl}amino)pyridine-4-carboxylic acid] | ≥ 7.00 | 5.00 to 6.00 | 6.00 to 7.00
CN(c1ccc(OC(F)F)cc1)c1ccc2c(c1)OCC[C@H]2CNc1cnccc1C(=O)O [Example 190, 3-({[(4R)-7-{[4-(difluoromethoxy)phenyl](methyl)amino}-3,4-dihydro-2H-1-benzopyran-4-yl]methyl}amino)pyridine-4-carboxylic acid] | ≥ 7.00 | 5.00 to 6.00 | 6.00 to 7.00
CN(c1ccccc1)c1ccc2c(c1)CCC[C@H]2CNc1nnccc1C(=O)O [Example 191, 3-({[(1R)-6-[methyl(phenyl)amino]-1,2,3,4-tetrahydronaphthalen-1-yl]methyl}amino)pyridazine-4-carboxylic acid] | ≥ 7.00 | 5.00 to 6.00 | 6.00 to 7.00
CN(c1ccc(CC(F)(F)F)cc1)c1ccc2c(c1)OCC[C@H]2CNc1cnccc1C(=O)O [Example 192, 3-({[(4R)-7-{methyl[4-(2,2,2-trifluoroethyl)phenyl]amino}-3,4-dihydro-2H-1-benzopyran-4-yl]methyl}amino)pyridine-4-carboxylic acid] | ≥ 7.00 | 5.00 to 6.00 | 6.00 to 7.00
CN(c1ccc(-n2ccnc2)cc1)c1ccc2c(c1)CCC[C@H]2CNc1cnccc1C(=O)O [Example 193, 3-({[(1R)-6-{[4-(1H-imidazol-1-yl)phenyl](methyl)amino}-1,2,3,4-tetrahydronaphthalen-1-yl]methyl}amino)pyridine-4-carboxylic acid] | 6.00 to 7.00 | 5.00 to 6.00 | 6.00 to 7.00
CN(c1ccc(-n2ccnc2)cc1)c1ccc2c(c1)OCC[C@H]2CNc1cnccc1C(=O)O [Example 194, 3-({[(4R)-7-{[4-(1H-imidazol-1-yl)phenyl](methyl)amino}-3,4-dihydro-2H-1-benzopyran-4-yl]methyl}amino)pyridine-4-carboxylic acid] | 5.00 to 6.00 | 5.00 to 6.00 | 6.00 to 7.00
CN(c1ccc(C2CCOCC2)cc1)c1ccc2c(c1)OCC[C@H]2CNc1cnccc1C(=O)O [Example 202, 3-({[(4R)-7-{methyl[4-(oxan-4-yl)phenyl]amino}-3,4-dihydro-2H-1-benzopyran-4-yl]methyl}amino)pyridine-4-carboxylic acid] | ≥ 7.00 | 5.00 to 6.00 | 6.00 to 7.00
CN(c1ccc(OCC2CC2)cc1)c1ccc2c(c1)CCC[C@H]2CNc1cnccc1C(=O)O [Example 209, 3-({[(1R)-6-{[4-(cyclopropylmethoxy)phenyl](methyl)amino}-1,2,3,4-tetrahydronaphthalen-1-yl]methyl}amino)pyridine-4-carboxylic acid] | ≥ 7.00 | 5.00 to 6.00 | 6.00 to 7.00
